Data published in patent publication US11673878B2, “Benzazepine derivatives” (OTSUKA PHARMACEUTICAL CO., LTD., priority 2017, dated 2023).

Legend:
[1] = Metabolic stability test in human liver microsomes; format: in vitro ADME; details: pH 7.4; human liver microsomes 1 mg/mL, test compound 1 μmol/L, NADPH and NADH, 37° C., n = 4; read-out: CLint (μL/min/mg) mean ± SD
Method: Reaction System and Incubation
According to methods of Obach and Jones, et al. (methods described in R. S. Obach, Drug Metab. Dispos. 1999 (27): 1350-1359 and H. Jones and J. B. Houston, Drug Metab. Dispos. 2004 (32): 973-982), the reaction system shown below was prepared and metabolic stabilities of test compounds (the present compounds and, tolvaptan) were evaluated using the reaction system shown below. Human liver microsomes purchased from Corning Inc. were used. Test compounds were dissolved in DMSO at the concentration of 10 mmol/L and then diluted with acetonitrile to prepare a 100 μmol/L solution for use in the test. The 100 μmol/L solutions were used in the experiment.
Human liver microsome 1 mg/mL
Co-factor (NADPH and NADH) 1 mmol/L each
Magnesium chloride 5 mmol/L
100 mmol/L Potassium phosphate buffer (pH 7.4)
The reaction mixture without co-factors was pre-incubated at 37° C. for 5 minutes, and then the reaction was initiated by the addition of the co-factors. The mixture was incubated for 0, 5, 10, 20, 30, and 60 minutes after the addition of the co-factors. An aliquot of the reaction mixture was removed and added to a methanol solution containing an internal standard (IS) and mixed to terminate the reaction at each predetermined time.
After the reaction was terminated, the mixture was separated by centrifugation and the supernatant was injected into a liquid chromatograph-tandem mass spectrometer (LC-MS/MS) to measure unchanged substances remained in the reaction system. The mass spectrometer was operated in a positive ion mode of the electrospray ionization (ESI) method. Unchanged substances and the IS were detected by multiple reaction monitoring (MRM) transitions using selected precursor and product ions set.
The remaining ratios of test compounds were calculated by the following equation. Remaining ratio=(Peak area ratio of a test compound to IS at t minutes after incubation)÷(Peak area ratio of a test compound to IS at 0 minute)
The slope of X-axis (the incubation time) and Y-axis (logarithm of the remaining ratio) was calculated by a non-linear least square method. Hepatic intrinsic clearance (CLint) was calculated by the following equation. CLint(μL/min/mg)=−(Slope(min^−1))÷1(mg/mL)×1000

[2] = biological target: T1, rat vasopressin V2 receptor (Rattus norvegicus, UniProt Q00788); experiment: Binding inhibition test for rat V2 receptor (3H-AVP, rV2R-CHO cells); details: inhibition of 3H-AVP binding, 4° C., 2 hours, read-out: Binding affinity rV2 (IC50)
T1 construct: expressed in transfected cells; host or cells: CHO cells (rV2R-CHO)
Method: (§1) Various compounds were studied in binding affinities for vasopressin receptors with an indicator of binding inhibition of rat vasopressin V1a receptor and vasopressin V2 receptor of ^3H-arginine vasopressin (AVP) (NET800, available from PerkinElmer Inc., Life Sciences).
(2) Binding Inhibition Test for Rat V2 Receptor (rV2R)
Rat V2 receptor-expressed CHO cells (rV2R—CHO) were incubated on 10% FBS-containing DMEM/F12 in a 24-well plate, and each cell was washed with D-PBS twice. A reaction solution (D-PBS containing 0.1% BSA and 0.05% sodium azide) comprising a compound in various concentrations (0.3 nM to 100 nM) was added to each well, and a certain amount of ^3H-AVP was added thereto (100-fold dilution). Reactions were carried out at 4° C. for 2 hours on the plate. Then, each well was washed with D-PBS twice and 0.1N NaOH was added to each well. The cells were collected, and the radioactivity of ^3H-AVP was measured with a scintillation counter.
(§2) ^3H-AVP binding rate in the presence of a compound was calculated by the following equation. Binding rate (%)=(B−NSB)/(TB−NSB)×100 (B: Binding amount of ^3H-AVP in the presence of each compound, NSB: Binding amount of ^3H-AVP in the presence of 1 μM of unlabeled AVP, TB: Binding amount of ^3H-AVP in the absence of 1 μM of unlabeled AVP)

[3] = Pharmacokinetics study in mice, single oral dose; format: in vivo; details: mouse; male ICR mice, single-dose oral administration of 30 mg/kg, plasma
Method: A pharmacokinetics (PK) study was performed using male ICR mice to compare the oral absorption properties of the present compounds with tolvaptan. A test compound was suspended in a 1% hydroxypropyl methylcellulose (HPMC) solution to be adjusted to the concentration of 4.5 mg/mL. The present compounds were used as the forms obtained in the above examples (including the amorphous form) for a test compound, or used after spray drying, if needed.
Male ICR mice (7-week old) were freely fed food and water and weighed on an electronic scale. Then, a test compound was orally administered at the dose of 30 mg/kg […]. After the oral administration, blood was collected from the abdominal vena cava under isoflurane anesthesia using a 1 mL heparinized syringe with a 26 G injection needle. Blood was separated by centrifugation at 4° C., 3000 rpm for 10 minutes to give plasma in a supernatant. The plasma concentration of a test compound was measured by LC-MS/MS.
The following PK parameters were calculated using the mean plasma concentrations of unchanged substances obtained from two animals at each time point.
Cmax: Maximum plasma concentration (μg/mL)
tmax: Time-to-maximum plasma concentration (h)
AUCinf: Area under the plasma concentration-time curve from administration to infinite time (μg h/mL)

[4] = biological target: T2, rat vasopressin V1a receptor (Rattus norvegicus, UniProt P30560); experiment: Binding inhibition test for rat V1a receptor (3H-AVP, rat hepatic membrane); details: inhibition of 3H-AVP binding, rat hepatic membrane V1a receptor fractions, 4° C., 2 hours; read-out: Binding affinity rV1a (IC50)
T2 construct: V1a receptor fractions derived from rat hepatic membrane; from tissue; host or cells: rat liver (hepatic membrane)
Method: as §1
(1) Binding Inhibition Test for Rat V1a Receptor (rV1aR)
50 μg of V1a receptor fractions derived from rat hepatic membrane were diluted with a reaction solution (100 mM Tris-HCl (pH 8.0), 0.1% BSA, 5 mM MgCl2, 1 mM EDTA) and added to each well of a 96-well plate. A compound was added to each well in various concentrations (0.3 nM to 100 nM), and ^3H-AVP was added thereto in the range of 1 nM to 3 nM. Reactions were carried out at 4° C. for 2 hours on the plate. Via receptor fractions were collected with a 96-well glass filter (Unifilter GF/B) after the reactions and washed with a washing solution (10 mM Tris-HCl (pH 8.0), 5 mM MgCl2, 1 mM EDTA) three times, and then the radioactivity of ^3H-AVP was measured with a scintillation counter.
as §2

T2 sequence (P30560 whole entry): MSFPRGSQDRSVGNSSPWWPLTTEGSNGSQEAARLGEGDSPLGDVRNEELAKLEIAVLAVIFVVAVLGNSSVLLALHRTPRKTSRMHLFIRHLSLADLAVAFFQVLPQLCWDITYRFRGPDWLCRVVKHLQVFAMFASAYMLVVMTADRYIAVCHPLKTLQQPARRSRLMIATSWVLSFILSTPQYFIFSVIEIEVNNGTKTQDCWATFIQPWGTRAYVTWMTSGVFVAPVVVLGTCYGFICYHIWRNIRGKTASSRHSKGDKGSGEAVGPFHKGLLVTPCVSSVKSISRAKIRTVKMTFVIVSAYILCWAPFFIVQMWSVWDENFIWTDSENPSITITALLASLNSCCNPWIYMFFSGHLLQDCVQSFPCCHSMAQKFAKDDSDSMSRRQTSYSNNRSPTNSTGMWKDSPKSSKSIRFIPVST
T1 sequence (Q00788 whole entry): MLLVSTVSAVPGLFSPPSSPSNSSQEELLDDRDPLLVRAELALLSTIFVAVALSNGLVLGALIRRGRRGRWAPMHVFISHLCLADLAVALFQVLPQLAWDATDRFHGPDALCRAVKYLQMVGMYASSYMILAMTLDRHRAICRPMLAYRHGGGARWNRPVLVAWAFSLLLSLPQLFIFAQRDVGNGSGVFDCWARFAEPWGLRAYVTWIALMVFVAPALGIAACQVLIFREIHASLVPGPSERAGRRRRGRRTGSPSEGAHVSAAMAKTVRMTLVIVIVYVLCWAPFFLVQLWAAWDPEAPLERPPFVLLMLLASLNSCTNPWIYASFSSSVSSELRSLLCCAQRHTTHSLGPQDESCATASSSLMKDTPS

## O=C(Nc1ccc(C(=O)N2CCC(F)(F)[C@](O)(CO)c3cc(Cl)ccc32)cc1F)c1cc(F)ccc1C(F)F [Example 157, N-{4-[(5R)-7-chloro-4,4-difluoro-5-hydroxy-5-(hydroxymethyl)-2,3,4,5-tetrahydro-1H-1-benzazepine-1-carbonyl]-2-fluorophenyl}-2-(difluoromethyl)-5-fluorobenzamide]
[1]
  microsomal CLint at 1 μmol/L: < 4 µL/min/mg
[2]
  IC50: 3.2 nM
[3]
  AUC(0-inf): 80.5 µg·h/mL
  Cmax: 6.21 µg/mL
  Tmax: 1 h
[4]
  IC50: 12 nM

## O=C(Nc1ccc(C(=O)N2CCC(F)(F)[C@](O)(CO)c3cc(Cl)ccc32)cn1)c1cc(F)ccc1Cl [Example 15, 2-chloro-N-{5-[(5R)-7-chloro-4,4-difluoro-5-hydroxy-5-(hydroxymethyl)-2,3,4,5-tetrahydro-1H-1-benzazepine-1-carbonyl]pyridin-2-yl}-5-fluorobenzamide]
[1]
  microsomal CLint at 1 μmol/L: < 4 µL/min/mg
[2]
  IC50: 1 nM
[3]
  AUC(0-inf): 63.1 µg·h/mL
  Cmax: 6.18 µg/mL
  Tmax: 1 h
[4]
  IC50: 2.9 nM

## O=C(Nc1ccc(C(=O)N2CCC(F)(F)[C@](O)(CO)c3cc(Cl)ccc32)cc1)c1cc(F)ccc1C(F)(F)F [Example 127, N-{4-[(5R)-7-chloro-4,4-difluoro-5-hydroxy-5-(hydroxymethyl)-2,3,4,5-tetrahydro-1H-1-benzazepine-1-carbonyl]phenyl}-5-fluoro-2-(trifluoromethyl)benzamide]
[1]
  microsomal CLint at 1 μmol/L: < 4 µL/min/mg
[2]
  IC50: 1.8 nM
[3]
  AUC(0-inf): 93.8 µg·h/mL
  Cmax: 7.95 µg/mL
  Tmax: 1 h
[4]
  IC50: 7.2 nM

## O=C(Nc1ccc(C(=O)N2CCC(F)(F)[C@](O)(CO)c3cc(Cl)ccc32)cn1)c1ccc(Cl)cc1Cl [Example 51, 2,4-dichloro-N-{5-[(5R)-7-chloro-4,4-difluoro-5-hydroxy-5-(hydroxymethyl)-2,3,4,5-tetrahydro-1H-1-benzazepine-1-carbonyl]pyridin-2-yl}benzamide]
[1]
  microsomal CLint at 1 μmol/L: < 4 µL/min/mg
[2]
  IC50: 1.7 nM
[3]
  AUC(0-inf): 53.8 µg·h/mL
  Cmax: 5.07 µg/mL
  Tmax: 1 h
[4]
  IC50: 16.1 nM

## O=C(Nc1ccc(C(=O)N2CCC(F)(F)[C@](O)(CO)c3cc(Cl)ccc32)cc1)c1cc(F)ccc1Cl [Example 23, 2-chloro-N-{4-[(5R)-7-chloro-4,4-difluoro-5-hydroxy-5-(hydroxymethyl)-2,3,4,5-tetrahydro-1H-1-benzazepine-1-carbonyl]phenyl}-5-fluorobenzamide]
[1]
  microsomal CLint at 1 μmol/L: 1.11 ± 2.21 µL/min/mg
[2]
  IC50: 1 nM
[3]
  AUC(0-inf): 71.3 µg·h/mL
  Cmax: 5.42 µg/mL
  Tmax: 4 h
[4]
  IC50: 2.6 nM

## O=C(Nc1ccc(C(=O)N2CCC(F)(F)[C@](O)(CO)c3cc(Cl)ccc32)cc1F)c1cc(F)ccc1C(F)(F)F [Example 132]
[1]
  microsomal CLint at 1 μmol/L: < 4 µL/min/mg
[2]
  IC50: 2.3 nM
[3]
  AUC(0-inf): 56.5 µg·h/mL
  Cmax: 3.59 µg/mL
  Tmax: 4 h
[4]
  IC50: 5.2 nM

## O=C(Nc1ccc(C(=O)N2CCC(F)(F)C(O)(CO)c3cc(Cl)ccc32)cn1)c1cc(F)ccc1Cl (stereo not drawn) [Example 3, 2-chloro-N-{5-[7-chloro-4,4-difluoro-5-hydroxy-5-(hydroxymethyl)-2,3,4,5-tetrahydro-1H-1-benzazepine-1-carbonyl]pyridin-2-yl}-5-fluorobenzamide]
[1]
  microsomal CLint at 1 μmol/L: < 4 µL/min/mg
[2]
  IC50: 2.1 nM
[3]
  AUC(0-inf): 38.9 µg·h/mL
  Cmax: 4.82 µg/mL
  Tmax: 1 h
[4]
  IC50: 9.5 nM

## O=C(Nc1ccc(C(=O)N2CCC(F)(F)[C@](O)(CO)c3cc(Cl)ccc32)cc1)c1cc(F)ccc1-c1ccccc1 [Example 153, N-{4-[(5R)-7-chloro-4,4-difluoro-5-hydroxy-5-(hydroxymethyl)-2,3,4,5-tetrahydro-1H-1-benzazepine-1-carbonyl]phenyl}-4-fluoro-[1,1′-biphenyl]-2-carboxamide]
[1]
  microsomal CLint at 1 μmol/L: 1.91 ± 2.22 µL/min/mg
[2]
  IC50: 4.5 nM
[3]
  AUC(0-inf): 34 µg·h/mL
  Cmax: 5.48 µg/mL
  Tmax: 1 h
[4]
  IC50: 3.6 nM

## O=C(Nc1ccc(C(=O)N2CCC(F)(F)[C@](O)(CO)c3cc(Cl)ccc32)cn1)c1cccnc1C(F)(F)F [Example 66, N-{5-[(5R)-7-chloro-4,4-difluoro-5-hydroxy-5-(hydroxymethyl)-2,3,4,5-tetrahydro-1H-1-benzazepine-1-carbonyl]pyridin-2-yl}-2-(trifluoromethyl)pyridine-3-carboxamide]
[1]
  microsomal CLint at 1 μmol/L: < 4 µL/min/mg
[2]
  IC50: 3.5 nM
[3]
  AUC(0-inf): 38.3 µg·h/mL
  Cmax: 4.55 µg/mL
  Tmax: 1 h
[4]
  IC50: 21.1 nM

## O=C(Nc1ccc(C(=O)N2CCC(F)(F)[C@](O)(CO)c3cc(Cl)ccc32)cc1)c1cc(F)ccc1-c1ccccc1F [Example 169, N-{4-[(5R)-7-chloro-4,4-difluoro-5-hydroxy-5-(hydroxymethyl)-2,3,4,5-tetrahydro-1H-1-benzazepine-1-carbonyl]phenyl}-2′,4-difluoro-[1,1′-biphenyl]-2-carboxamide]
[1]
  microsomal CLint at 1 μmol/L: 5.09 ± 0.32 µL/min/mg
[2]
  IC50: 3.3 nM
[3]
  AUC(0-inf): 32.2 µg·h/mL
  Cmax: 5.65 µg/mL
  Tmax: 1 h
[4]
  IC50: 1.6 nM
